From ChEMBL document CHEMBL1132884, “Carbonic anhydrase inhibitors: synthesis of N-morpholylthiocarbonylsulfenylamino aromatic/heterocyclic sulfonamides and their interaction with isozymes I, II and IV” (Bioorg Med Chem Lett, 2000)
One block for each compound: values may come before it.

Tests used:
Carbonic anhydrase 1 = Carbonic anhydrase 1 (Homo sapiens, UniProt P00915)
Description: Inhibition of human carbonic anhydrase I (CAI)

Carbonic anhydrase 4 = target: T1, Carbonic anhydrase 4 (Bos taurus, UniProt Q95323)
T1 sequence (Q95323 whole entry): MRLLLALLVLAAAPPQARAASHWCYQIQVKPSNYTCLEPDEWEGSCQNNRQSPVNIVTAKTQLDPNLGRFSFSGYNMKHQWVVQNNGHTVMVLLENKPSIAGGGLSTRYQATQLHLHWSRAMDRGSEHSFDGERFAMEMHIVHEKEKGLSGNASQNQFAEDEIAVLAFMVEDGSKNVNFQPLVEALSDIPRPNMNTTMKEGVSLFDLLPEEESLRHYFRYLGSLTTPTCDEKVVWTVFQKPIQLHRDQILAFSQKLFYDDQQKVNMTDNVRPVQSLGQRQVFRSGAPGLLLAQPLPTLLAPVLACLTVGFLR
Description: Inhibition of bovine carbonic anhydrase IV from bovine lung microsomes

Carbonic anhydrase 2 = Carbonic anhydrase 2 (Homo sapiens, UniProt P00918)
Description: Inhibition of human carbonic anhydrase II (hCA II)

IGROV-1 = assay: Compound was tested in vitro for its antitumor activity against ovarian cancer cell line IGROVI (50% growth inhibition of tumor cells after 48 hr exposure ); format: functional; conditions: Homo sapiens, IGROV-1, 48 h
PC-3 = assay: Compound was tested in vitro for its antitumor activity against prostate cancer cell line PC-3 (50% growth inhibition of tumor cells after 48 hr exposure ); format: functional; conditions: Homo sapiens, PC-3, 48 h
HL-60 = assay: Compound was tested in vitro for its antitumor activity against leukemia cell line HL-60(50% growth inhibition of tumor cells after 48 hr exposure ); format: functional; conditions: Homo sapiens, HL-60, 48 h
MDA-N = assay: Compound was tested in vitro for its antitumor activity against breast cancer cell line MDA-N (50% growth inhibition of tumor cells after 48 hr exposure ); format: functional; conditions: Homo sapiens
SR = assay: Compound was tested in vitro for its antitumor activity against leukemia cell line SR (50% growth inhibition of tumor cells after 48 hr exposure ); format: functional; conditions: Homo sapiens
786-0 = assay: Compound was tested in vitro for its antitumor activity against renal cancer cell line […] (50% growth inhibition of tumor cells after 48 hr exposure ); format: functional; conditions: Homo sapiens, 786-0, 48 h
OVCAR-4 = assay: Compound was tested in vitro for its antitumor activity against ovarian cancer cell line OVCAR-4 (50% growth inhibition of tumor cells after 48 hr exposure ); format: functional; conditions: Homo sapiens, OVCAR-4, 48 h
DU-145 = assay: Compound was tested in vitro for its antitumor activity against prostate cancer cell line DU-145 (50% growth inhibition of tumor cells after 48 hr exposure ); format: functional; conditions: Homo sapiens, DU-145, 48 h
SF-295 = assay: Compound was tested in vitro for its antitumor activity against CNS cancer cell line SF-295 (50% growth inhibition of tumor cells after 48 hr exposure ); format: functional; conditions: Homo sapiens, SF-295, 48 h
LOX IMVI = assay: Compound was tested in vitro for its antitumor activity against melanoma cell line LOX IMVI (50% growth inhibition of tumor cells after 48 hr exposure ); format: functional; conditions: Homo sapiens
HCT-15 = assay: Compound was tested in vitro for its antitumor activity against colon cancer cell line HCT-15 (50% growth inhibition of tumor cells after 48 hr exposure ); format: functional; conditions: Homo sapiens, HCT-15, 48 h
SK-MEL-2 = assay: Compound was tested in vitro for its antitumor activity against melanoma cell line SK-MEL-2 (50% growth inhibition of tumor cells after 48 hr exposure ); format: functional; conditions: Homo sapiens, SK-MEL-2, 48 h
CAKI-1 = assay: Compound was tested in vitro for its antitumor activity against renal cancer cell line CAKI-I (50% growth inhibition of tumor cells after 48 hr exposure ); format: functional; conditions: Homo sapiens, CAKI-1, 48 h
A549 = assay: Compound was tested in vitro for its antitumor activity against non-small cell lung cancer cell line A549/ATCC(50% growth inhibition of tumor cells after 48 hr exposure ); format: functional; conditions: Homo sapiens, A549, 48 h
SF-268 = assay: Compound was tested in vitro for its antitumor activity against CNS cancer cell line SF-268 (50% growth inhibition of tumor cells after 48 hr exposure ); format: functional; conditions: Homo sapiens, SF-268, 48 h
HOP-62 = assay: Compound was tested in vitro for its antitumor activity against non-small cell lung cancer cell line HOP-62(50% growth inhibition of tumor cells after 48 hr exposure ); format: functional; conditions: Homo sapiens, HOP-62, 48 h
M14 = assay: Compound was tested in vitro for its antitumor activity against melanoma cell line M14 (50% growth inhibition of tumor cells after 48 hr exposure ); format: functional; conditions: Homo sapiens, M14, 48 h
MCF7 = assay: Compound was tested in vitro for its antitumor activity against breast cancer cell line MCF-7 (50% growth inhibition of tumor cells after 48 hr exposure ); format: functional; conditions: Homo sapiens, MCF7, 48 h
MOLT-4 = assay: Compound was tested in vitro for its antitumor activity against leukemia cell line MOLT-4 (50% growth inhibition of tumor cells after 48 hr exposure ); format: functional; conditions: Homo sapiens, MOLT-4, 48 h
ACHN = assay: Compound was tested in vitro for its antitumor activity against renal cancer cell line ACHN (50% growth inhibition of tumor cells after 48 hr exposure ); format: functional; conditions: Homo sapiens
COLO 205 = assay: Compound was tested in vitro for its antitumor activity against colon cancer cell line COLO-205 (50% growth inhibition of tumor cells after 48 hr exposure ); format: functional; conditions: Homo sapiens, COLO 205, 48 h
NCI-H522 = assay: Compound was tested in vitro for its antitumor activity against non-small cell lung cancer cell line NCI-H522 (50% growth inhibition of tumor cells after 48 hr exposure ); format: functional; conditions: Homo sapiens, NCI-H522, 48 h

Chain of Carbonic anhydrase 1 (P00915 whole entry): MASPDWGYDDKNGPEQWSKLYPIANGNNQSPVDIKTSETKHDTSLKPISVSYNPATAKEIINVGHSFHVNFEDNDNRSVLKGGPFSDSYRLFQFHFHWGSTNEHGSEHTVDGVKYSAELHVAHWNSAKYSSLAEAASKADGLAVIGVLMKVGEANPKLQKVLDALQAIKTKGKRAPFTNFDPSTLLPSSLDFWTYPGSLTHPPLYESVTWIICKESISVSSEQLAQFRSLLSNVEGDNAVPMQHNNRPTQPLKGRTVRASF

SMILES: CCN(SC(=S)N1CCOCC1)C1CC(C)S(=O)(=O)c2sc(S(N)(=O)=O)cc21 (stereo not given)
Ki (Carbonic anhydrase 1): > 50 µM
Ki (Carbonic anhydrase 4): 0.022 µM
Ki (Carbonic anhydrase 2): 0.006 µM

SMILES: NS(=O)(=O)c1nnc(NSC(=S)N2CCOCC2)s1
Ki (Carbonic anhydrase 1): 0.24 µM
Ki (Carbonic anhydrase 4): 0.025 µM
Ki (Carbonic anhydrase 2): 0.006 µM

SMILES: NS(=O)(=O)c1ccc(CNSC(=S)N2CCOCC2)cc1
GI50 (IGROV-1): 52 µM
GI50 (PC-3): 12 µM
GI50 (HL-60): 0.09 µM
Ki (Carbonic anhydrase 1): 0.62 µM
GI50 (MDA-N): 15 µM
GI50 (SR): 0.15 µM
GI50 (786-0): 10 µM
GI50 (OVCAR-4): > 100 µM
GI50 (DU-145): 13 µM
GI50 (SF-295): 5.4 µM
GI50 (LOX IMVI): 12 µM
GI50 (HCT-15): 24 µM
GI50 (SK-MEL-2): 12 µM
GI50 (CAKI-1): 17 µM
GI50 (A549): 38 µM
GI50 (SF-268): 16 µM
GI50 (HOP-62): 15 µM
GI50 (M14): 10 µM
GI50 (MCF7): 0.03 µM
GI50 (MOLT-4): 9 µM
GI50 (ACHN): 15 µM
GI50 (COLO 205): 30 µM
Ki (Carbonic anhydrase 4): 0.035 µM
GI50 (NCI-H522): 0.019 µM
Ki (Carbonic anhydrase 2): 0.01 µM

SMILES: NS(=O)(=O)c1nnc(NS(=O)(=O)c2ccc(NSC(=S)N3CCOCC3)cc2)s1
Ki (Carbonic anhydrase 1): 0.005 µM
Ki (Carbonic anhydrase 4): 0.004 µM
Ki (Carbonic anhydrase 2): 0.0014 µM

SMILES: NS(=O)(=O)c1ccc(CCNSC(=S)N2CCOCC2)cc1
GI50 (IGROV-1): 0.09 µM
GI50 (PC-3): 11 µM
GI50 (HL-60): 0.07 µM
Ki (Carbonic anhydrase 1): 0.36 µM
GI50 (MDA-N): 13 µM
GI50 (SR): < 0.01 µM
GI50 (786-0): 11 µM
GI50 (OVCAR-4): 61 µM
GI50 (DU-145): 10 µM
GI50 (SF-295): > 100 µM
GI50 (LOX IMVI): 5 µM
GI50 (HCT-15): > 100 µM
GI50 (SK-MEL-2): 5 µM
GI50 (CAKI-1): 9 µM
GI50 (A549): 11 µM
GI50 (SF-268): 90 µM
GI50 (HOP-62): 62 µM
GI50 (M14): 8 µM
GI50 (MCF7): 0.026 µM
GI50 (MOLT-4): 54 µM
GI50 (ACHN): 15 µM
GI50 (COLO 205): 21 µM
Ki (Carbonic anhydrase 4): 0.024 µM
GI50 (NCI-H522): 0.075 µM
Ki (Carbonic anhydrase 2): 0.008 µM

SMILES: NS(=O)(=O)c1ccc(NSC(=S)N2CCOCC2)c(F)c1
Ki (Carbonic anhydrase 1): 0.76 µM
Ki (Carbonic anhydrase 4): 0.12 µM
Ki (Carbonic anhydrase 2): 0.033 µM

SMILES: NS(=O)(=O)c1ccc(NSC(=S)N2CCOCC2)cc1
GI50 (IGROV-1): 70 µM
GI50 (PC-3): 24 µM
GI50 (HL-60): 0.086 µM
Ki (Carbonic anhydrase 1): 9 µM
GI50 (MDA-N): 61 µM
GI50 (SR): 0.2 µM
GI50 (786-0): 12 µM
GI50 (OVCAR-4): > 100 µM
GI50 (DU-145): 80 µM
GI50 (SF-295): 44 µM
GI50 (LOX IMVI): 34 µM
GI50 (HCT-15): 68 µM
GI50 (SK-MEL-2): 31 µM
GI50 (CAKI-1): 30 µM
GI50 (A549): 46 µM
GI50 (SF-268): 58 µM
GI50 (HOP-62): 78 µM
GI50 (M14): 14 µM
GI50 (MCF7): 0.033 µM
GI50 (MOLT-4): 10 µM
GI50 (ACHN): 31 µM
GI50 (COLO 205): 32 µM
Ki (Carbonic anhydrase 4): 0.1 µM
GI50 (NCI-H522): 0.42 µM
Ki (Carbonic anhydrase 2): 0.036 µM

SMILES: NS(=O)(=O)c1cc(S(N)(=O)=O)c(NSC(=S)N2CCOCC2)c(Cl)c1Cl
Ki (Carbonic anhydrase 1): 0.5 µM
Ki (Carbonic anhydrase 4): 0.049 µM
Ki (Carbonic anhydrase 2): 0.018 µM

SMILES: Cn1nc(S(N)(=O)=O)s/c1=N/SC(=S)N1CCOCC1
Ki (Carbonic anhydrase 1): 0.2 µM
Ki (Carbonic anhydrase 4): 0.026 µM
Ki (Carbonic anhydrase 2): 0.006 µM

SMILES: NS(=O)(=O)c1ccc(NSC(=S)N2CCOCC2)c(Br)c1
Ki (Carbonic anhydrase 1): 2.4 µM
Ki (Carbonic anhydrase 4): 0.096 µM
Ki (Carbonic anhydrase 2): 0.048 µM

SMILES: NS(=O)(=O)c1nnc(NC(=O)CCNSC(=S)N2CCOCC2)s1
Ki (Carbonic anhydrase 1): 0.105 µM
Ki (Carbonic anhydrase 4): 0.021 µM
Ki (Carbonic anhydrase 2): 0.002 µM

SMILES: Cn1nc(S(N)(=O)=O)s/c1=N/S(=O)(=O)c1ccc(NSC(=S)N2CCOCC2)cc1
Ki (Carbonic anhydrase 1): 0.002 µM
Ki (Carbonic anhydrase 4): 0.0013 µM
Ki (Carbonic anhydrase 2): 0.0005 µM

SMILES: NS(=O)(=O)c1ccc(NS(=O)(=O)c2ccc(NSC(=S)N3CCOCC3)cc2)cc1
Ki (Carbonic anhydrase 1): 0.03 µM
Ki (Carbonic anhydrase 4): 0.01 µM
Ki (Carbonic anhydrase 2): 0.003 µM

Now from value to compound:

Ki (Carbonic anhydrase 1): 24 µM
Ki (Carbonic anhydrase 4): 0.65 µM
Ki (Carbonic anhydrase 2): 0.79 µM
SMILES: NS(=O)(=O)c1ccc(NNSC(=S)N2CCOCC2)cc1

Ki (Carbonic anhydrase 1): 15 µM
Ki (Carbonic anhydrase 4): 0.14 µM
Ki (Carbonic anhydrase 2): 0.048 µM
SMILES: CCN(C)C(=S)SNc1ccc(S(N)(=O)=O)cc1

Ki (Carbonic anhydrase 1): 0.95 µM
Ki (Carbonic anhydrase 4): 0.041 µM
Ki (Carbonic anhydrase 2): 0.013 µM
SMILES: CCN(C)C(=S)SNCc1ccc(S(N)(=O)=O)cc1

Ki (Carbonic anhydrase 1): 3 µM
Ki (Carbonic anhydrase 4): 0.17 µM
Ki (Carbonic anhydrase 2): 0.055 µM
SMILES: NS(=O)(=O)c1ccc(NSC(=S)N2CCOCC2)c(I)c1

Ki (Carbonic anhydrase 1): 10 µM
Ki (Carbonic anhydrase 4): 0.29 µM
Ki (Carbonic anhydrase 2): 0.15 µM
SMILES: NS(=O)(=O)c1cccc(NSC(=S)N2CCOCC2)c1

Ki (Carbonic anhydrase 1): 0.63 µM
Ki (Carbonic anhydrase 4): 0.03 µM
Ki (Carbonic anhydrase 2): 0.011 µM
SMILES: CCN(C)C(=S)SNCCc1ccc(S(N)(=O)=O)cc1

Ki (Carbonic anhydrase 1): 11.5 µM
Ki (Carbonic anhydrase 4): 0.5 µM
Ki (Carbonic anhydrase 2): 0.78 µM
SMILES: NS(=O)(=O)c1ccccc1NSC(=S)N1CCOCC1

Ki (Carbonic anhydrase 1): 0.8 µM
Ki (Carbonic anhydrase 4): 0.094 µM
Ki (Carbonic anhydrase 2): 0.04 µM
SMILES: NS(=O)(=O)c1ccc(NSC(=S)N2CCOCC2)c(Cl)c1

Ki (Carbonic anhydrase 1): 0.56 µM
Ki (Carbonic anhydrase 4): 0.09 µM
Ki (Carbonic anhydrase 2): 0.015 µM
SMILES: NS(=O)(=O)c1cc(S(N)(=O)=O)c(NSC(=S)N2CCOCC2)cc1Cl

Ki (Carbonic anhydrase 1): 0.031 µM
Ki (Carbonic anhydrase 4): 0.01 µM
Ki (Carbonic anhydrase 2): 0.007 µM
SMILES: NS(=O)(=O)c1cccc(NS(=O)(=O)c2ccc(NSC(=S)N3CCOCC3)cc2)c1
